System: Polycyclic aromatic hydrocarbon binding protein
Conditions: Mus musculus
Description: Competition for [3H]benzo[a]pyrene-binding site of polycyclic aromatic hydrocarbon binding protein (PBP) from mouse liver
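Note: competitive displacement of radiolabeled [3H]benzo[a]pyrene from its binding site on the protein taken from mouse liver.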

SMILES | Delta Gm
O[C@H]1c2cccc3ccc4c5ccccc5cc(c4c23)[C@@H]1O | 17.4
c1ccc2cc3c4ccccc4c4ccccc4c3cc2c1 | 18.6
Cc1ccc2cc3c(ccc4ccccc43)c3c2c1CC3 | 17.4
O[C@H]1C=Cc2c(cc3ccc4cccc5ccc2c3c45)[C@@H]1O | 18.4
O[C@@H]1C=Cc2cc3ccc4cccc5ccc(c2[C@H]1O)c3c45 | 18.9
Nc1cccc2ccccc12 | 14.4
c1cc2ccc3cccc4ccc(c1)c2c34 | 16.3
c1ccc2c(c1)-c1cccc3cccc-2c13 | 17.8
C1=Cc2cc3cccc4ccc5ccc1c2c5c43 | 15.8
Oc1ccc2cc3ccc4cccc5ccc(c2c1)c3c45 | 18.3
c1ccc2c(c1)cc1ccc3cccc4ccc2c1c34 | 19
c1ccc2c(c1)ccc1c3ccccc3ccc21 | 17.9
Nc1cc2ccccc2c2ccccc12 | 15.2
O[C@H]1C=C2c3ccccc3-c3cccc(c32)[C@@H]1O | 17.7
Nc1ccc2c(c1)Cc1ccccc1-2 | 11.9
Nc1cccc2cc3ccccc3cc12 | 15.2
